According to patent US11865506B2, “Pyraclostrobin microcapsule based on sodium alginate and preparation method” (ANHUI AGRICULTURAL UNIVERSITY, priority 2022, dated 2024):
≈ marks a conversion by molar mass, not a printed value. Read-outs that look alike come from different tables or passages of the source.

Assays:
[1] = Photostability under ultraviolet light; assay type: physicochemical
From the text: (§1) The cold storage stability, hot storage stability, and photostability are experimented respectively.
Determination of the active ingredient residual concentration of the original drug and microcapsules under the same ultraviolet light conditions, the results are shown in Table 15.

[2] = tested on: Fusarium pseudograminearum; test: microbe, parasite or virus in culture; assay type: cell-based
Protocol: By mycelium growth rate method, the fungicidal activity of pyraclostrobin original drug and the prepared pyraclostrobin SA microcapsules against Fusarium pseudograminearum is determined, and the release rule of the microcapsules in the culture medium is determined.
Inclined experiment tube storage method: inoculate the strain of Fusarium pseudograminearum on a PDA plate for activation treatment, place the plate in a constant temperature incubator at 25° C. after sealing, and incubate for 3 days. Pick out the edge bacteria, transfer to a PDA slant experiment tube, and cultivate at a constant temperature at 25° C. until the colonies cover the surface of the slant, then put the experiment tube into a 4° C. refrigerator for storage until use. […]
Activate the Fusarium pseudograminearum on a drug-free PDA plate in advance, after culturing at 25° C. for 3 days, beat the fungus cake along the edge of the colony, pick the fungus cake with an inoculation needle every 0, 4, 8, 12, and 16 days and transfer it reversely to the center of the drug-containing medium; seal and store the culture dish, and place in a constant temperature incubator at 25° C. for cultivation. After each cultivation for 3 days, the diameter of the colony is measured by the cross method, and the average value is used to calculate the antibacterial rate as follows. […]

[3] = 25° C., cited from earlier work
[4] = Cold and hot storage stability; assay type: physicochemical; conditions: for Stability / decomposition rate on cold storage: stored at 4° C. and −20° C.
From the text: as §1

[5] = organic solvent; cited from earlier work

SMILES | Photolysis rate constant ([1]; Ct = C0 × e^−kt) | Residual concentration of the active ingredient ([1]; final time of 60 minutes) | Photolysis half life ([1]; first-level kinetic equation) | half-life at 9.986 μg/mL ([1]; first-level kinetic equation, read-out: Photolysis half life) | EC50 [2] | Solubility to original drug ([3]; in acetone) | Solubility to original drug ([3]; in ethanol) | Solubility to original drug ([3]; in ethyl acetate) | Solubility to original drug ([3]; in methanol) | Decomposition rate ([4]; storage at 25° C. for 30 days) | Decomposition rate ([4]; storage at 54° C. for 30 days) | Stability / decomposition rate on cold storage [4] | Stability / decomposition rate on cold storage ([4]; listed as pyraclostrobin original drug) | Toxicity [5]
COC(=O)N(OC)c1ccccc1COc1ccn(-c2ccc(Cl)cc2)n1 [Original drug, pyraclostrobin] | 0.03 | 1.384 µg/mL | 21.01 min | 21 min | 0.097 µg/mL (≈ 0.25 µM) | ≥65 g/100 mL | ≥10 g/100 mL | ≥65 g/100 mL | ≥10 g/100 mL | 2.2% | 40.25% | better stability | extremely low | 
CCOC(C)=O [Ethyl acetate] |  |  |  |  |  |  |  |  |  |  |  |  |  | Low
CC(C)=O [Acetone] |  |  |  |  |  |  |  |  |  |  |  |  |  | Low
